Laboratory results reported in US20230321108A1, “UNIT DOSAGE COMPOSITION OF AKT INHIBITOR” (NANJING CHIA TAI TIANQING PHARMACEUTICAL CO., LTD., priority 2020, published 2023).

Legend:
AKT3 = AKT3 (Homo sapiens (Human), UniProt Q9Y243); experiment: AKT kinase activity assay (HTRF kinEASE TK), AKT3; format: biochemical; conditions: 10 nM ATP, read-out: AKT3 enzyme activity IC50
Description: The substrate and ATP were respectively diluted with the 1× kinase reaction buffer to a concentration 5 times the reaction concentration.
A 5× enzyme working solution was prepared from the 1× kinase reaction buffer.
A 4× streptavidin-XL665 working solution was prepared from the assay buffer.
4× europium-labeled tyrosine kinase substrate antibody working solution The europium-labeled tyrosine kinase substrate antibody was 100-fold diluted with the assay reaction buffer to obtain a working solution.
After all the reagents were prepared according to the above method, except for the enzyme, the reagents were equilibrated to the room temperature and loaded.
b) 2 µL of previously prepared TK-biotin substrate solution (the concentration of the substrate for enzyme screening is shown in Table 1) was placed in each reaction well.
The plate was sealed with a sealing film, and the reaction solution was mixed until uniform and incubated at the room temperature for 10 min to allow the compound to fully react with and bind to the enzyme.
d) 2 µL of ATP solution was placed in each reaction well to initiate a kinase reaction (the concentration of ATP for enzyme screening and reaction time are shown in Table 1).
e) 5 min before the kinase reaction was completed, an assay solution was prepared.
f) After the kinase reaction was completed, 5 µL of diluted streptavidin-XL665 was placed in each reaction well and mixed with the reaction solution until uniform, and the diluted europium-labeled tyrosine kinase substrate antibody assay solution was immediately added.

AKT1 = AKT1 (Homo sapiens (Human), UniProt P31749); experiment: AKT kinase activity assay (HTRF kinEASE TK), AKT1; format: biochemical; conditions: 2 µM ATP, read-out: AKT1 enzyme activity IC50
[1] = tested on: LnCap human prostate cancer; experiment: Subcutaneous transplantation model of LnCap human prostate cancer; format: in vivo, NCG mice; conditions: for T/C / TGI / TV on the day of the end of the experiment: 18 days; for TV on the day of the end of the experiment / TV on the day of grouping and administration: mean ± SEM; for TV on the day of grouping and administration: baseline
Source text: NCG mice, male, 8-10-week-old (when tumor cells were inoculated into the mice). […] LnCap cells in exponential growth phase were harvested and resuspended in PBS to a concentration suitable for subcutaneous tumor inoculation into mice. […] A formula for calculating a tumor volume: long diameter × short diameter^2 / 2. [table] […] Solvent: the solvent was a mixed solvent of PG, PEG400, and water, PG: PEG400: water=(20-40): (20-30): (30-50) (v: v: v). Any ratio within the range can be used. [table] All experimental results are shown as mean tumor volume ± SEM (standard error of mean). Whether there is a significant difference between the treatment group and the control group in terms of tumor volume was determined by the independent samples T test. All data were analyzed by using SPSS 18.0.

Chain of AKT3 (Q9Y243 whole entry): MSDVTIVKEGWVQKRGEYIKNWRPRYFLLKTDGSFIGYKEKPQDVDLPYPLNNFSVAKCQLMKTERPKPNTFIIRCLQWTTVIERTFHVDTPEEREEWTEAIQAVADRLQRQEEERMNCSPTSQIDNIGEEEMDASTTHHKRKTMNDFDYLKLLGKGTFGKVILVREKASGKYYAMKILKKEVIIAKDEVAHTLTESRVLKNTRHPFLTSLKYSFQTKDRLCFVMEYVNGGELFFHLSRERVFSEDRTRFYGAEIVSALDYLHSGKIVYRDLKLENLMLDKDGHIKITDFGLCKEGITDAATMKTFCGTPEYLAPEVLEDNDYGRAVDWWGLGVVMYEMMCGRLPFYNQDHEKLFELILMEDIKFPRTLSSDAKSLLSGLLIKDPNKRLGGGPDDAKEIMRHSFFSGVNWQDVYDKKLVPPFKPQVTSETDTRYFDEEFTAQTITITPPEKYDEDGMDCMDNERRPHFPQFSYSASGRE
Chain of AKT1 (P31749 whole entry): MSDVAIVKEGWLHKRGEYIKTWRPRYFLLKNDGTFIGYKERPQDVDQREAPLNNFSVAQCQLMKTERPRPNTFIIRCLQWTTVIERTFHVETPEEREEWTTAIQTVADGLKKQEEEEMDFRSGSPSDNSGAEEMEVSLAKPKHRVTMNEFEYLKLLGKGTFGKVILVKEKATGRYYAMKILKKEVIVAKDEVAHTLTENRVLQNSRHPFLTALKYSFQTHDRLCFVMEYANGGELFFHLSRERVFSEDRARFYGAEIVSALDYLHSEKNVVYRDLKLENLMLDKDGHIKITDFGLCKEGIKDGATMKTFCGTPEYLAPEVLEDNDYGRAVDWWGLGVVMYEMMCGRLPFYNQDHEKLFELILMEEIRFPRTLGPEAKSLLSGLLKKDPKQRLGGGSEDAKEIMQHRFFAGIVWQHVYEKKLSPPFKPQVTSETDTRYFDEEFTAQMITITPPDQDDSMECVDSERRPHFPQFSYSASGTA

| Structure (SMILES) | IC50 (AKT3) [nM] | IC50 (AKT1) [nM] | T/C ([1]; 50 mg/kg QD po) [%] | TGI ([1]; 50 mg/kg QD po) [%] | TV on the day of the end of the experiment ([1]; 50 mg/kg QD po) [mm^3] | TV on the day of grouping and administration ([1]; 50 mg/kg QD po) [mm^3] | other results |
| --- | --- | --- | --- | --- | --- | --- | --- |
| C[C@@H]1CC(=O)Nc2ncnc(N3CCN(C(=O)[C@H](CNC4CC4)c4ccc(Cl)cc4)[C@H]4C[C@H]43)c21 (single isomer, unassigned) [Isomer 1 of Example 1] | 13 |  |  |  |  |  |  |
| CC(C)NC[C@@H](C(=O)N1CCN(c2ncnc3c2[C@H](C)OC(=O)N3)[C@H]2C[C@H]21)c1ccc(Cl)cc1 (single isomer, unassigned; isomer 4) [Isomer 4 of Example 3] | 0.12 | 0.6 | 10.29 | 89.71 | 99.30±40.55 | 177.90±10.06 | tumor inhibiting effect in the in vivo experiment ([1]; result in words): obvious tumor inhibiting effect |
| CC(C)NC[C@@H](C(=O)N1CCN(c2ncnc3c2[C@H](C)OC(=O)N3)[C@H]2C[C@H]21)c1ccc(Cl)cc1 (single isomer, unassigned) [Isomer 2 of Example 3] | 89 | 613 |  |  |  |  |  |
| CC(C)NC[C@@H](C(=O)N1CCN(c2ncnc3c2[C@H](C)CC(=O)N3)[C@H]2C[C@H]21)c1ccc(Cl)cc1 [Isomer 2 of Example 1, (R)-4-((1S,6R)-5-((S)-2-(4-chlorophenyl)-3-(isopropylamino)propionyl)-2,5-diazabicyclo[4.1.0]heptan-2-yl)-5-methyl-5,8-dihydropyrido[2,3-d]pyrimidin-7(6H)-one] |  |  | 4.52 | 95.48 | 43.64±16.62 | 177.78±6.64 | T/C ([1]; 12.5 mg/kg QD po): 41.57%; TGI ([1]; 12.5 mg/kg QD po): 58.43%; TV on the day of the end of the experiment ([1]; 12.5 mg/kg QD po): 401.07±80.17 mm^3; TV on the day of grouping and administration ([1]; 12.5 mg/kg QD po): 177.76±6.67 mm^3; T/C ([1]; 25 mg/kg QD po): 15.90%; TGI ([1]; 25 mg/kg QD po): 84.10%; TV on the day of the end of the experiment ([1]; 25 mg/kg QD po): 153.42±23.11 mm^3; TV on the day of grouping and administration ([1]; 25 mg/kg QD po): 177.80±6.71 mm^3 |
| C[C@@H]1CC(=O)Nc2ncnc(N3CCN(C(=O)[C@H](CNC4CC4)c4ccc(Cl)cc4)[C@@H]4C[C@@H]43)c21 [Isomer 2 of Example 2, (R)-4-((1S,6R)-5-((S)-2-(4-chlorophenyl)-3(cyclopropylamino)propionyl)-2,5-diazabicyclo[4.1.0]heptan-2-yl)-5-methyl-5,8-dihydropyrido[2,3-d]pyrimidin-7(6H)-one] |  |  | 19.44 | 80.56 | 187.49±22.88 |  |  |
